The record followed here is patent US12649733B2, “3,6-diamino-pyridazin-3-yl derivatives, pharmaceutical compositions containing them and their uses as pro-apoptotic agents” (LES LABORATOIRES SERVIER, priority 2019, dated 2026).

In one test the test system is H146 cells. Description: H146 cell viability, MTT assay. Format: cell-based. To be noted: Homo sapiens, NCI-H146, 48 h, 48 h exposure. As to the method: (§1) MTT colorimetric assay is based on the mitochondrial reduction of tetrazolium salt by living cells. The viable cell number is proportional to the production of formazan salts, which can be read spectrophotometrically at 540 nm.
(§2) MOLT-4 and H146 cells were purchased from ATCC and cultivated in RPMI 1640 supplemented with 10% heat inactivated fetal bovine serum, penicillin (100 IU/ml), streptomycin (100 μg/ml) and L-glutamine (2 mM). Cells were cultured at 37° C. in a humidified atmosphere containing 5% CO2. Cells were seeded in 96 microwell plates (150 μL per well) and exposed to the compounds for 48 h (3.16 fold serially diluted; 9 concentrations each, triplicates). At the end of incubation time, 15 μL of MTT solution (5 mg/ml) were added per well and the cells were incubated for another 4 h. Then, 100 μL of 10% Sodium Dodecyl Sulfate (SDS)/HCl 10 mM were added per well and the plate was incubated overnight, before measurement of optical density at 540 nm. IC50s were calculated using standard four-parametric curve fitting.

In the next test the target is BCLXL (Homo sapiens, UniProt Q07817, V10N/V9A). In words: Fluorescence polarisation assay (PUMA-based probe displacement). Further: 20 nM protein, 10 nM fluorescent probe. Format: binding. Here is the method:
Fluorescence polarization measures the rotation of a fluorescing species in solution, the larger the molecule the more polarized the fluorescence emission.
[[…]] (GST UniProtKB® primary accession number P08515 and BCLXL UniProtKB® primary accession number Q07817-1),
resulting in an increase in anisotropy. If a compound is added which competitively binds to the same site as the probe, thereby releasing it, anisotropy decreases due to the increased amount of free probe.
An 11-point serial dilution of each compound was prepared in DMSO, the final buffer conditions were 10 mM 4-(2-hydroxyethyl)-1-piperazineethanesulfonic acid [HEPES], 150 mM NaCl, 0.05% Tween 20, pH 7.4 and 5% DMSO. The final protein concentration in the assay was 20 nM with the fluorescent probe present at 10 nM. The experiments were incubated for 2 hours at 23° C. before fluorescence polarization was measured on a Biotek SynergyNeo plate reader (Excitation 485 nm, emission 525 nm, parallel and perpendicular reads). […] The KI values were determined from the IC50 values according to Cer et al, Nucleic Acids Res, 2009, Jul. 1: 37(WebServer issue): W441-W445.

The test system of the next test is MOLT-4 cells. Description: MOLT-4 cell viability, MTT assay. It counts as cell-based. To be noted: Homo sapiens, MOLT-4, 48 h, 48 h exposure. Here is the method: as §1, §2

pIC50, pKi: −log10 of the molar value.

Sequence of BCLXL (Q07817 with tags, fused parts or gaps V9A/V10N): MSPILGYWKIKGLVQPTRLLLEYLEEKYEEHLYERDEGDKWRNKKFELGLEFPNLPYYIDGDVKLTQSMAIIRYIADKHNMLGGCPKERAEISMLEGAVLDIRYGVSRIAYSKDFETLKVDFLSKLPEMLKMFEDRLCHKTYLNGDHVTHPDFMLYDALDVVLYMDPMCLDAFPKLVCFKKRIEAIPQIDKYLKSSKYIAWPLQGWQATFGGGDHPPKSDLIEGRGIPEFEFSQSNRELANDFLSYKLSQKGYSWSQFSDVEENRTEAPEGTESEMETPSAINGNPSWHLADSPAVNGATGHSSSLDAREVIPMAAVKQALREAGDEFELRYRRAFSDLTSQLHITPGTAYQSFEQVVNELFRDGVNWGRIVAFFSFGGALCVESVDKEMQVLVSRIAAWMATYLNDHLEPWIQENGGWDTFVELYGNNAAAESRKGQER

What is called pIC50 is the IC50 on a negative log10 scale, so that one unit is a factor of ten. A word on the pKi: it is −log10 of the Ki, conventionally taken in molar units. As for `Cc1c(Nc2nc(C(=O)O)c(CCCOc3ccccc3)s2)nnc(Nc2nc3ccccc3s2)c1C` [Example 9, 2-({6-[(1,3-Benzothiazol-2-yl)amino]-4,5-dimethylpyridazin-3-yl}amino)-5-(3-phenoxypropyl)-1,3-thiazole-4-carboxylic acid], the pIC50 in the test on H146 cells was 6.68; in the test on MOLT-4 cells, 5.63. In addition, the pKi at BCLXL was 8.40.

Consider `COCCCc1sc(Nc2nnc(Nc3nc4ccccc4s3)c(C)c2C)nc1C(=O)O` [Example 12], for which the pIC50 was 6.04 in the test on H146 cells and 5.79 in the test with MOLT-4 cells. Moreover, the pKi on BCLXL is 7.57.

As to `Cc1c(Nc2nc(C(=O)O)c(CCCOc3ccccc3F)s2)nnc(Nc2nc3ccccc3s2)c1C` [Example 13, 2-({6-[(1,3-Benzothiazol-2-yl)amino]-4,5-dimethylpyridazin-3-yl}amino)-5-[3-(2-fluorophenoxy)propyl]-1,3-thiazole-4-carboxylic acid], the pIC50 with H146 cells was 6.53; in the test with MOLT-4 cells, 5.65. On BCLXL, the pKi is 8.42.

In the test with H146 cells, `Cc1c(Nc2nc(C(=O)O)c(CCCOc3ccc(C(=O)N(C)C)cc3F)s2)nnc(Nc2nc3ccccc3s2)c1C` [Example 14, 2-({6-[(1,3-Benzothiazol-2-yl)amino]-4,5-dimethylpyridazin-3-yl}amino)-5-{3-[4-(dimethylcarbamoyl)-2-fluorophenoxy]propyl}-1,3-thiazole-4-carboxylic acid] showed a pIC50 of 5.68. The pKi on BCLXL was 8.49.

On to `CCc1c(Nc2nc(C(=O)O)cs2)nnc(Nc2nc3ccccc3s2)c1C` [Example 15, 2-({6-[(1,3-Benzothiazol-2-yl)amino]-4-ethyl-5-methylpyridazin-3-yl}amino)-1,3-thiazole-4-carboxylic acid], for which the pIC50 in the test on H146 cells was below 4.82. The pKi on BCLXL is 7.43.

For `CCc1c(Nc2nc3ccccc3s2)nnc(Nc2nc(C(=O)O)cs2)c1C` [Example 16, 2-({6-[(1,3-Benzothiazol-2-yl)amino]-5-ethyl-4-methylpyridazin-3-yl}amino)-1,3-thiazole-4-carboxylic acid], the pIC50 with H146 cells was 5.09. Moreover, on BCLXL, the pKi is 7.28.

With `Cc1c(Nc2nc3ccccc3s2)nnc(Nc2nc(C(=O)O)cs2)c1CO` [Example 18, 2-({6-[(1,3-Benzothiazol-2-yl)amino]-4-(hydroxymethyl)-5-methylpyridazin-3-yl}amino)-1,3-thiazole-4-carboxylic acid], the pIC50 in the test with H146 cells is below 4.82. The pKi on BCLXL was 7.11.

In the test with H146 cells, `Cc1c(Nc2nc3ccccc3s2)nnc(Nc2nc(C(=O)O)cs2)c1C1CC1` [Example 19, 2-({6-[(1,3-Benzothiazol-2-yl)amino]-4-cyclopropyl-5-methylpyridazin-3-yl}amino)-1,3-thiazole-4-carboxylic acid] showed a pIC50 of at most 4.89. In addition, the negative-log Ki (pKi) at BCLXL is 7.52.

With `Cc1c(Nc2nc(C(=O)O)c(CCCOc3ccc(CCCN(C)C)cc3F)s2)nnc(Nc2nc3ccccc3s2)c1C` [Example 22, 2-({6-[(1,3-Benzothiazol-2-yl)amino]-4,5-dimethylpyridazin-3-yl}amino)-5-(3-{4-[3-(dimethylamino)propyl]-2-fluorophenoxy}propyl)-1,3-thiazole-4-carboxylic acid], the pIC50 in the test on H146 cells was 5.67. Besides, on BCLXL, the pKi was 8.54.

On to `O=C(O)c1csc(Nc2nnc(Nc3nc4ccccc4s3)c3c2CCC3)n1` [Example 23, 2-[[1-(1,3-Benzothiazol-2-ylamino)-6,7-dihydro-5H-cyclopenta[d]pyridazin-4-yl]amino]thiazole-4-carboxylic acid], for which the figures for the pIC50 in the test with H146 cells and in the test on MOLT-4 cells were at most 4.90 and 4.89, respectively. For the same compound, on BCLXL, the pKi was 7.40.

In the case of `O=C(O)c1cccc(Nc2nnc(Nc3nc4ccccc4s3)c3c2CCCC3)n1` [Example 24, 6-[[4-(1,3-Benzothiazol-2-ylamino)-5,6,7,8-tetrahydrophthalazin-1-yl]amino]pyridine-2-carboxylic acid], the pIC50 with H146 cells was 5.16; in the test with MOLT-4 cells, 5.48. Also, at BCLXL, the pKi was 6.85.

As to `O=C(O)c1cccc(Nc2nnc(Nc3nc4ccccc4s3)c3c2CCC3)n1` [Example 25, 6-[[4-(1,3-benzothiazol-2-ylamino)-6,7-dihydro-5H-cyclopenta[d]pyridazin-1-yl]amino]pyridine-2-carboxylic acid], the pIC50 in the test with H146 cells is 5.50; in the test with MOLT-4 cells, 5.15. Also, on BCLXL, the pKi is 6.00.

Consider `Cc1c(Nc2nc(C(=O)O)cs2)nnc(Nc2nc3ccccc3s2)c1CO` [Example 27, 2-({6-[(1,3-Benzothiazol-2-yl)amino]-5-(hydroxymethyl)-4-methylpyridazin-3-yl}amino)-1,3-thiazole-4-carboxylic acid], for which the pIC50 with H146 cells is below 4.82; with MOLT-4 cells, below 4.89. Besides, at BCLXL, the pKi is 6.51.

Consider `COCc1c(Nc2nc3ccccc3s2)nnc(Nc2nc(C(=O)O)cs2)c1C` [Example 28, 2-({6-[(1,3-Benzothiazol-2-yl)amino]-5-(methoxymethyl)-4-methylpyridazin-3-yl}amino)-1,3-thiazole-4-carboxylic acid], for which the pIC50 in the test with H146 cells and in the test on MOLT-4 cells was below 4.82 in each case. The pKi at BCLXL was 6.89.

As for `CCOCc1c(Nc2nc(C(=O)O)cs2)nnc(Nc2nc3ccccc3s2)c1C` [Example 30, 2-({6-[(1,3-Benzothiazol-2-yl)amino]-4-(ethoxymethyl)-5-methylpyridazin-3-yl}amino)-1,3-thiazole-4-carboxylic acid], the pIC50 in the test with H146 cells is below 4.82; with MOLT-4 cells it was 5.06. The pKi on BCLXL was 7.09.

For the compound `CN(c1cc(C2CC2)c(Nc2nc3ccccc3s2)nn1)c1nc(C(=O)O)cs1` [Example 31, 2-({6-[(1,3-Benzothiazol-2-yl)amino]-5-cyclopropylpyridazin-3-yl}(methyl)amino)-1,3-thiazole-4-carboxylic acid], the values for the pIC50 in the test with H146 cells and in the test with MOLT-4 cells were 5.38 and 5.63, respectively. Further, at BCLXL, the pKi is 8.59.

With `Cc1c(-c2sc(Nc3ccc(Nc4nc5ccccc5s4)nn3)nc2C(=O)O)cnn1CC12CC3CC(CC(C3)C1)C2` [Example 32, 5-{1-[(Adamantan-1-yl)methyl]-5-methyl-1H-pyrazol-4-yl}-2-({6-[(1,3-benzothiazol-2-yl)amino]pyridazin-3-yl}amino)-1,3-thiazole-4-carboxylic acid], the pIC50 was at most 5.13 in the test on H146 cells and 4.88 in the test with MOLT-4 cells. Besides, the pKi on BCLXL is 6.59.

Take `Cc1c(Nc2nc(C(=O)O)c(-c3cnn(CC45CC6CC(CC(C6)C4)C5)c3C)s2)nnc(Nc2nc3ccccc3s2)c1C` [Example 33, 5-{1-[(Adamantan-1-yl)methyl]-5-methyl-1H-pyrazol-4-yl}-2-({6-[(1,3-benzothiazol-2-yl)amino]-4,5-dimethylpyridazin-3-yl}amino)-1,3-thiazole-4-carboxylic acid]: the pIC50 was 5.36 in the test on H146 cells and 5.20 in the test on MOLT-4 cells. The pKi on BCLXL was 7.19.

Consider `CC(C)c1cc(N(C)c2nc(C(=O)O)cs2)nnc1Nc1nc2ccccc2s1` [Example 34, 2-({6-[(1,3-Benzothiazol-2-yl)amino]-5-(propan-2-yl)pyridazin-3-yl}(methyl)amino)-1,3-thiazole-4-carboxylic acid], for which the pIC50 was 5.27 with H146 cells and 5.41 with MOLT-4 cells. The pKi on BCLXL is 8.05.
